Measured values from ChEMBL document CHEMBL2074249, “Fruit juices inhibit organic anion transporting polypeptide-mediated drug uptake to decrease the oral availability of fexofenadine” (Clin Pharmacol Ther, 2002).

Assays:
Format in all cases: functional, cell-based
[1] = molecular target: T1, Oatp3 (Solute carrier organic anion transporter family member 1A5) (Rattus norvegicus, UniProt O88397); assay: TP_TRANSPORTER: inhibition of Fexofenadine uptake (Fexofenadine: 1? uM, 6',7'-Dihydroxybergamottin: 50 uM) in Oatp3-expressing HeLa cells; design: scale not given: the % may be the effect or the level left; settings: human, HeLa cells that express Oatp3, probe fexofenadine; read-out: Activity
T1 sequence (O88397 whole entry): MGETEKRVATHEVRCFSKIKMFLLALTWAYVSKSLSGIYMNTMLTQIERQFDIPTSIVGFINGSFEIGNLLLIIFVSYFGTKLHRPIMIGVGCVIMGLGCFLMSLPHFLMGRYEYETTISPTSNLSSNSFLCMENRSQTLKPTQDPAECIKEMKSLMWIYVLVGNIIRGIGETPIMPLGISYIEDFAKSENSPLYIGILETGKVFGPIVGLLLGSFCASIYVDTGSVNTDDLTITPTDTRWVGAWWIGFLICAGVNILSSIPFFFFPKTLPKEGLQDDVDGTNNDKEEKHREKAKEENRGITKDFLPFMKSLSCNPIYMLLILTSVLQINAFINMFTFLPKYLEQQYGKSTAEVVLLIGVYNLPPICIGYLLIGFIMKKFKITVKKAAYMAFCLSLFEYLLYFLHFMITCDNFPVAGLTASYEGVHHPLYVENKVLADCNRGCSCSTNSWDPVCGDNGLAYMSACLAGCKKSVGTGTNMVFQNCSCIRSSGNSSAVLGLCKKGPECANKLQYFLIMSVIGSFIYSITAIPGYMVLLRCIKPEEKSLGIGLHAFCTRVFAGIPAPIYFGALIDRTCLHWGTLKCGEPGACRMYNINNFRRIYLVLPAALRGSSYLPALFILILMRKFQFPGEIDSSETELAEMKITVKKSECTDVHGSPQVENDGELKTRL

[2] = molecular target: T1, Oatp3 (Solute carrier organic anion transporter family member 1A5); assay: TP_TRANSPORTER: inhibition of Fexofenadine uptake (Fexofenadine: 1? uM, Naringenin: 50 uM) in Oatp3-expressing HeLa cells; design: scale not given: the % may be the effect or the level left; settings: human, HeLa cells that express Oatp3, probe fexofenadine; read-out: Activity
[3] = molecular target: T1, Oatp3 (Solute carrier organic anion transporter family member 1A5); assay: TP_TRANSPORTER: inhibition of Fexofenadine uptake (Fexofenadine: 1? uM, Hesperidin: 50 uM) in Oatp3-expressing HeLa cells; design: scale not given: the % may be the effect or the level left; settings: human, HeLa cells that express Oatp3, probe fexofenadine; read-out: Activity
[4] = molecular target: T2, Solute carrier organic anion transporter family member 1A1 (Rattus norvegicus, UniProt P46720); assay: TP_TRANSPORTER: inhibition of Fexofenadine uptake (Fexofenadine: 1 uM, Orange juice: 5 %) in Oatp1-expressing HeLa cells; settings: human
T2 sequence (P46720 whole entry): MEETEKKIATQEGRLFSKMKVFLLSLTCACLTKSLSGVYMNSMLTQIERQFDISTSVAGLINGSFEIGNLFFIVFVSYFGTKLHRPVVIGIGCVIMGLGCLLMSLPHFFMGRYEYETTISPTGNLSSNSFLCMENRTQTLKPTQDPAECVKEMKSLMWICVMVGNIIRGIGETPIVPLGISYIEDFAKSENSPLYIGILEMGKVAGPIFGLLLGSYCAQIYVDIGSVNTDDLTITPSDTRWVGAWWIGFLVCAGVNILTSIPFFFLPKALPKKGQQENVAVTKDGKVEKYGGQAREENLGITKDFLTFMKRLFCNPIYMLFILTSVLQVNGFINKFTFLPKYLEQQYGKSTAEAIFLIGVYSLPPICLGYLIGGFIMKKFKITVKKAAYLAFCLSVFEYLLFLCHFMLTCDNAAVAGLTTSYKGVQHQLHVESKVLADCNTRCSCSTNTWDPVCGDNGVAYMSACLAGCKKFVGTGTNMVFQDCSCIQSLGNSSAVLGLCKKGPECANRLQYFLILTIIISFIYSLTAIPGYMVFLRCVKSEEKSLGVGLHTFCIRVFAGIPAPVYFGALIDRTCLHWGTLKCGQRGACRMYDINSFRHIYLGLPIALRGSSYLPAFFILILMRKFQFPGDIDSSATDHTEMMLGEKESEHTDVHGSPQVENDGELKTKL

[5] = molecular target: T3, Solute carrier organic anion transporter family member 1A4 (Rattus norvegicus, UniProt O35913); assay: TP_TRANSPORTER: inhibition of Fexofenadine uptake (Fexofenadine: 1 uM, Orange juice: 5 %) in Oatp2-expressing HeLa cells; settings: human
T3 sequence (O35913 whole entry): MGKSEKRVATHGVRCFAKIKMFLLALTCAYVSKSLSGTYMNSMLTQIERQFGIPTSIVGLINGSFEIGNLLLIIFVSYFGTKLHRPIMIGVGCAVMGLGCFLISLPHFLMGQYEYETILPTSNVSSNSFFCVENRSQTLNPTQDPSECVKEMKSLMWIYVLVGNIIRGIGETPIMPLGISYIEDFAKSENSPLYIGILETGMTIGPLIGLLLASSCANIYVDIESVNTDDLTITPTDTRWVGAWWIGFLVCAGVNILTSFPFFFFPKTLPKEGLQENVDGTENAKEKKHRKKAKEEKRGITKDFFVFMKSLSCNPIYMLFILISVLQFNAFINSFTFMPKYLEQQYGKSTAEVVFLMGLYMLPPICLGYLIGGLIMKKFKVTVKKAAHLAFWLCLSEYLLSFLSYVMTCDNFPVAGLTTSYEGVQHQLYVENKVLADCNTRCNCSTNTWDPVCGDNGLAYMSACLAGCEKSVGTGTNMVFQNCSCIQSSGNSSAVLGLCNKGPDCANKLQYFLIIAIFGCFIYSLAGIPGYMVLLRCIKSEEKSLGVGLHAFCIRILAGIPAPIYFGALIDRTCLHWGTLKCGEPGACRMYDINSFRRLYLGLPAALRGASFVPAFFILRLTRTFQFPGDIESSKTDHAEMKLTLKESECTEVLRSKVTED

[6] = molecular target: T4, Solute carrier organic anion transporter family member 1A5 (Rattus norvegicus, UniProt O88397); assay: TP_TRANSPORTER: inhibition of Fexofenadine uptake (Fexofenadine: 1 uM, Orange juice: 5 %) in Oatp3-expressing HeLa cells; settings: human
T4 sequence (O88397 whole entry): T1 sequence (O88397 whole entry)

[7] = molecular target: T5, Solute carrier organic anion transporter family member 1A2 (Homo sapiens, UniProt P46721); assay: TP_TRANSPORTER: inhibition of Fexofenadine uptake (Fexofenadine: 1 uM, Orange juice: 5 %) in OATP-A-expressing HeLa cells
T5 sequence (P46721 whole entry): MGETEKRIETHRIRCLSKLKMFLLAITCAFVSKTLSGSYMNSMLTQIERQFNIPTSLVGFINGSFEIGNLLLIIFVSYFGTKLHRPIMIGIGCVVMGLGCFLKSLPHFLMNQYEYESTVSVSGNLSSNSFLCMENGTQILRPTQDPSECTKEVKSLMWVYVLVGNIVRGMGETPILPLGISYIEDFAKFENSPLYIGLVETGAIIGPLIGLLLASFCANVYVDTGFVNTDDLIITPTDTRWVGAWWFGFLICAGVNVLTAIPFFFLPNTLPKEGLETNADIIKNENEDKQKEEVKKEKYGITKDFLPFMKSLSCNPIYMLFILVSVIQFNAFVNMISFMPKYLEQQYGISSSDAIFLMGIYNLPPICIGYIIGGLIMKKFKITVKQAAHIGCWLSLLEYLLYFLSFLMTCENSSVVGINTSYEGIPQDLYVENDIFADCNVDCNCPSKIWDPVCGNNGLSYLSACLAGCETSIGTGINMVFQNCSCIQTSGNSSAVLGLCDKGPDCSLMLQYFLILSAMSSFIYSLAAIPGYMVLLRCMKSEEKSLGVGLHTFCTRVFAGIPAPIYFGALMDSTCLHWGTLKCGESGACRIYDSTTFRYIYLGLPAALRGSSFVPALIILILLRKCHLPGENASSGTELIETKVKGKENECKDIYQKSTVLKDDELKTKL

[8] = molecular target: T1, Oatp3 (Solute carrier organic anion transporter family member 1A5); assay: TP_TRANSPORTER: inhibition of Fexofenadine uptake (Fexofenadine: 1? uM, Naringin: 5 uM) in Oatp3-expressing HeLa cells; design: scale not given: the % may be the effect or the level left; settings: human, HeLa cells that express Oatp3, probe fexofenadine; read-out: Activity
[9] = molecular target: T3, Solute carrier organic anion transporter family member 1A4; assay: TP_TRANSPORTER: inhibition of Fexofenadine uptake (Fexofenadine: 1 uM, Grapefruit juice: 5 %) in Oatp2-expressing HeLa cells; settings: human
[10] = molecular target: ATP-dependent translocase ABCB1 (Homo sapiens, UniProt P08183); assay: TP_TRANSPORTER: inhibition of Vinblastine transepithelial transport (basal to apical) (Vinblastine: 5 uM, Grapefruit juice: 5 %) in MDR1-expressing LLC-PK1 cells; settings: pig
[11] = molecular target: T2, Solute carrier organic anion transporter family member 1A1; assay: TP_TRANSPORTER: inhibition of Fexofenadine uptake (Fexofenadine: 1 uM, Grapefruit juice: 5 %) in Oatp1-expressing HeLa cells; settings: human
[12] = molecular target: T5, Solute carrier organic anion transporter family member 1A2; assay: TP_TRANSPORTER: inhibition of Fexofenadine uptake (Fexofenadine: 1 uM, Grapefruit juice: 5 %) in OATP-A-expressing HeLa cells
[13] = molecular target: T1, Oatp3 (Solute carrier organic anion transporter family member 1A5); assay: TP_TRANSPORTER: inhibition of Fexofenadine uptake (Fexofenadine: 1? uM, 5-Methoxypsoralen: 50 uM) in Oatp3-expressing HeLa cells; design: scale not given: the % may be the effect or the level left; settings: human, HeLa cells that express Oatp3, probe fexofenadine; read-out: Activity
[14] = molecular target: T2, Solute carrier organic anion transporter family member 1A1; assay: TP_TRANSPORTER: inhibition of Fexofenadine uptake (Fexofenadine: 1 uM, Apple juice: 5 %) in Oatp1-expressing HeLa cells; settings: human
[15] = molecular target: T4, Solute carrier organic anion transporter family member 1A5; assay: TP_TRANSPORTER: inhibition of Fexofenadine uptake (Fexofenadine: 1 uM, Apple juice: 5 %) in Oatp3-expressing HeLa cells; settings: human
[16] = molecular target: T1, Oatp3 (Solute carrier organic anion transporter family member 1A5); assay: TP_TRANSPORTER: inhibition of Fexofenadine uptake (Fexofenadine: 1? uM, Hesperitin: 5 uM) in Oatp3-expressing HeLa cells; design: scale not given: the % may be the effect or the level left; settings: human, HeLa cells that express Oatp3, probe fexofenadine; read-out: Activity
[17] = molecular target: T1, Oatp3 (Solute carrier organic anion transporter family member 1A5); assay: TP_TRANSPORTER: inhibition of Fexofenadine uptake (Fexofenadine: 1? uM, Bergamottin: 50 uM) in Oatp3-expressing HeLa cells; design: scale not given: the % may be the effect or the level left; settings: human, HeLa cells that express Oatp3, probe fexofenadine; read-out: Activity
[18] = molecular target: T1, Oatp3 (Solute carrier organic anion transporter family member 1A5); assay: TP_TRANSPORTER: inhibition of Fexofenadine uptake (Fexofenadine: 1? uM, Quercetin: 5 uM) in Oatp3-expressing HeLa cells; design: scale not given: the % may be the effect or the level left; settings: human, HeLa cells that express Oatp3, probe fexofenadine; read-out: Activity

Sequence of ATP-dependent translocase ABCB1 (P08183 whole entry): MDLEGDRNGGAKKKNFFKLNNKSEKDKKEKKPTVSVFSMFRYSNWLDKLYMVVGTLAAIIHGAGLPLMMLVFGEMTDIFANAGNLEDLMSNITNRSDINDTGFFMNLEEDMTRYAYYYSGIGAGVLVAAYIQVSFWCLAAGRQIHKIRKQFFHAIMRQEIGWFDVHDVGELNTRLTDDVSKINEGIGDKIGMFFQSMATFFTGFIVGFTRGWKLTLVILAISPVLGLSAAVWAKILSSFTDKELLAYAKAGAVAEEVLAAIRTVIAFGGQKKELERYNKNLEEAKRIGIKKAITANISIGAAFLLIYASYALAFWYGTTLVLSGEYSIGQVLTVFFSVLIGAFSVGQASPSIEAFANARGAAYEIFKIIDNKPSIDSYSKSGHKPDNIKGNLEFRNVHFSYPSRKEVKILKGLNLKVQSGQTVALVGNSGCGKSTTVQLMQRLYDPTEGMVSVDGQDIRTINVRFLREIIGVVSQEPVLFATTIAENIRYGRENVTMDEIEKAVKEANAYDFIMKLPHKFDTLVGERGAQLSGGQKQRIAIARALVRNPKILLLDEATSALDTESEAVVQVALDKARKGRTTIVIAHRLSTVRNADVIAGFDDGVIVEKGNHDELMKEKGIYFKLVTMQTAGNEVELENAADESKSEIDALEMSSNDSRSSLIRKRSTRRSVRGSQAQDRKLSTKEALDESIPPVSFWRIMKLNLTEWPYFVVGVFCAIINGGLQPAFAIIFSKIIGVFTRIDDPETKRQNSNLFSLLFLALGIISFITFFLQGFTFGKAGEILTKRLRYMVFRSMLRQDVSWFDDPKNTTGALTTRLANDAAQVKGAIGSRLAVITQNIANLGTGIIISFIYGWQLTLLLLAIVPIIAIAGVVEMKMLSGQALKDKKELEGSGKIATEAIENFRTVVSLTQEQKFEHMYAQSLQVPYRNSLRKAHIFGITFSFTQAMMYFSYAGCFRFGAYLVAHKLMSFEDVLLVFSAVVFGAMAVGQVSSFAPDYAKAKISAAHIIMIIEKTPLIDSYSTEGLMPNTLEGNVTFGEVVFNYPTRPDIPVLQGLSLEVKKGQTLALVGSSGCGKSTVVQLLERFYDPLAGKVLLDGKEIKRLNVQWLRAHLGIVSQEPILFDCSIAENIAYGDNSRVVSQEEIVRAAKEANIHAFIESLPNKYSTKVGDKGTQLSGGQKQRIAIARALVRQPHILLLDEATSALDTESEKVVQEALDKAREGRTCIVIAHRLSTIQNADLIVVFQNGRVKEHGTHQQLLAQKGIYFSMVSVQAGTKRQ

With `C/C(=C\COc1c2ccoc2cc2oc(=O)ccc12)CC[C@@H](O)C(C)(C)O` the activity at 50 µM [1] was 22%.
For `O=C1C[C@@H](c2ccc(O)cc2)Oc2cc(O)cc(O)c21` [NARINGENIN], the activity at 50 µM [2] was 10%.
Compound `COc1ccc([C@@H]2CC(=O)c3c(O)cc(O[C@@H]4O[C@H](CO[C@@H]5O[C@@H](C)[C@H](O)[C@@H](O)[C@H]5O)[C@@H](O)[C@H](O)[C@H]4O)cc3O2)cc1O` [HESPERIDIN] has an activity at 50 µM [3] of 51%.
For ORANGE JUICE, the Activity [4] was “inhibitor [(at a rough estimate) 25 % of control]”, the Activity [5] was “inhibitor [(at a rough estimate) <5 % of control]” and the Activity [6] was “inhibitor [(at a rough estimate) 10 % of control]”. The Activity [7] was “inhibitor [(at a rough estimate) 10 % of control]”.
Compound `C[C@@H]1O[C@@H](O[C@H]2[C@H](Oc3cc(O)c4c(c3)O[C@H](c3ccc(O)cc3)CC4=O)O[C@H](CO)[C@@H](O)[C@@H]2O)[C@H](O)[C@H](O)[C@H]1O` [NARINGIN] has an activity at 5 µM [8] of 36%.
In the case of GRAPEFRUIT JUICE, the Activity [9] is reported as “inhibitor [(at a rough estimate) 20 % of control]”, the Activity [10] is reported as “is not an inhibitor [-]” and the Activity [11] is reported as “inhibitor [(at a rough estimate) <0 % of control]”. The Activity [12] was “inhibitor [(at a rough estimate) 10 % of control]”.
`COc1c2ccoc2cc2oc(=O)ccc12` [BERGAPTEN] gave an activity at 50 µM [13] of 32%.
APPLE JUICE was tested, and the Activity [14] was “inhibitor [(at a rough estimate) 5 % of control]” and the Activity [15] was “inhibitor [(at a rough estimate) 5 % of control]”.
In the case of `COc1ccc([C@@H]2CC(=O)c3c(O)cc(O)cc3O2)cc1O` [HESPERETIN], the activity at 5 µM [16] is reported as 40%.
Compound `CC(C)=CCC/C(C)=C/COc1c2ccoc2cc2oc(=O)ccc12` [BERGAMOTTIN] has an activity at 50 µM [17] of 22%.
In the case of `O=c1c(O)c(-c2ccc(O)c(O)c2)oc2cc(O)cc(O)c12` [QUERCETIN], the activity at 5 µM [18] is reported as 52%.
